Counter-ions that a name gives are not always drawn.
Assays:
FXa = FXa (Homo sapiens, UniProt P00742); assay: Measurement of inhibitory activity against activated factor X (chromogenic substrate S-2222); type: biochemical; settings: 0.015 U/ml FXa, 0.2 mM S-2222, absorbance 405 nm; read-out: FXa (pIC50) (converted)
Protocol: Experimental Example 1 Measurement of Inhibitory Activity Against Activated Factor X Activity
(§1) Using a 96-well plate (#3396, Costar), 100 mM Tris-HC1 buffer (130 μL) containing 0.02% Tween 20, 0.1% PEG6000 and 0.2M NaCl was admixed with 0.015 U/ml FXa (10 μL) and a test compound (10 μL) for 10 min and a color developing substrate 0.2 mM S-2222 (50 μL) was added. Using a microplate reader Benchmark Plus (BIO-RAD), the reaction rate was measured from the time course changes at absorbance 405 nm. Using the reaction rate of the control as 100%, the negative logarithmic value of the concentration that can suppress the reaction rate of the control by 50% was taken as the pIC50 value.

[1] = target: activated factor IIa (thrombin) (Homo sapiens, UniProt P00734); assay: Measurement of inhibitory activity against activated factor II (chromogenic substrate S-2238); type: biochemical; settings: 0.125 U/ml thrombin, 0.1 mM S-2238, absorbance 405 nm; read-out: FIIa (pIC50) (converted)
Protocol: Experimental Example 2 Measurement of Inhibitory Activity Against Activated Factor II (FIIa, Thrombin)
as §1, with “mM Tris-HCl” for “mM Tris-HC1”, “with 0.125” for “with 0.015”, “U/ml activated factor IIa (thrombin)” for “U/ml FXa”, “substrate 0.1” for “substrate 0.2”, “mM S-2238” for “mM S-2222”

human plasma = assay: Anti-blood coagulant activity, aPTT method, Sysmex CA-1500 (Experimental Example 3-1); type: biochemical; settings: negative logarithmic value of the concentration that prolongs aPTT of the control 2 times
Protocol: Experimental Example 3-1 Measurement of Anti-Blood Coagulant Activity
Examples 1, 8, 9, 11, 13, 16-19 and 22 were measured according to the following method.
An aPTT measurement method using totally automatic blood coagulation time measuring apparatus Sysmex CA-1500 was used. A 10 mg/ml DDVP solution (DDVP standard product, Wako) (4 μL) and a test compound solution (20 μL) were placed in a sample tube (MS-18, Japan Medical Science), human plasma (standard human plasma for blood coagulation test, GCH-100A, Sysmex) (180 μL) was added and the mixture was used as a test sample. The test sample (50 μL) was incubated at 37° C. for 1 min, data fi APTT (rabbit brain-derived cephalin, DADE Behiring) (50 μL) was added, and the mixture was further incubated at 37° C. for 2 min. To the sample solution was added 0.02M calcium chloride (50 μL), and the time until plasma coagulation was automatically measured.
As the anti-blood coagulant activity, the negative logarithmic value of the concentration that prolongs aPTT of the control 2 times is shown as paPTT2.

[2] = Evaluation of stability in plasma; type: in vitro ADME; settings: human plasma, 37° C., read-out: T½
Protocol: Experimental Example 4 Evaluation of stability in plasma
To human plasma (495 μL) was added 5 μL from a solution of the test compound prepared to 200 μM (final drug solution concentration 2 μM), and the mixture was incubated at 37° C. At 0 min, 1 min, 2 min, 5 min and 10 min from the addition of the drug solution, 50 μL each was sampled, 0.1 mg/ml DDVP-containing acetonitrile (350 μL) was added, and the reaction was discontinued by blending them. After discontinuation of the reaction, a deproteination treatment was performed by a centrifugation operation at 15000 rpm for 5 min. The centrifugation supernatant (350 μL) was dried to solidness, concentrated, dissolved in aqueous solution (100 μL) of 20% acetonitrile and 0.1% formic acid and the mixture was subjected to the measurement by LC/MS/MS.
The half-life (T1/2) was calculated using initial 3rd-4th time points.

[3] = Evaluation of stability in liver S9 fraction; type: in vitro ADME; settings: human liver S9 fraction 2 mg/mL, 2 μM, 37° C.
Protocol: Experimental Example 5 Evaluation of Stability in Liver S9 Fraction
Metabolism reaction mixed solution (0.1 mM EDTA-100 mM potassium phosphate buffer (pH 7.4), 2 mg/mL human liver S9 fraction, 0.5 mM oxidized nicotinamide adenine dinucleotide phosphate, 5 mM glucose-6-phosphoric acid, 1 unit/mL glucose-6-phosphate dehydrogenase) was pre-warmed at 37° C. for 5 min. After pre-warming, DMSO solution of the substrate was added such that the concentration of the final drug solution was 2 μM, and the metabolism reaction was started at 37° C. A given amount was sampled at 0 min, 5 min, 10 min and 30 min from the start of the reaction, 0.1 mg/mL dichlorvos-containing acetonitrile was added, and blended to discontinue the reaction. After discontinuation of the reaction, a deproteination treatment was performed by a centrifugation operation at 15000 rpm for 5 min. To the centrifugation supernatant was added 0.3% aqueous formic acid solution, admixed and the mixture was subjected to the measurement by LC/MS/MS. Then, as the residual ratio (%) at 30 min later, the ratio relative to the concentration at 0 min was calculated.

Sequence of FXa (P00742 235-488 limits assumed): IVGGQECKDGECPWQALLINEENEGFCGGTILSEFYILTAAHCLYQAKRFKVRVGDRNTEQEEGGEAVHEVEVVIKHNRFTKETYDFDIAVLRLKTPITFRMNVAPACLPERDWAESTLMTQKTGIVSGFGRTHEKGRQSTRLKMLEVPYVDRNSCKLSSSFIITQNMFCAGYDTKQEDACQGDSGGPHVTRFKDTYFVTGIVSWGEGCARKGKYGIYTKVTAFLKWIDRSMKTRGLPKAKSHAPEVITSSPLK
Sequence of FXa (P00742 41-179 partner limits assumed): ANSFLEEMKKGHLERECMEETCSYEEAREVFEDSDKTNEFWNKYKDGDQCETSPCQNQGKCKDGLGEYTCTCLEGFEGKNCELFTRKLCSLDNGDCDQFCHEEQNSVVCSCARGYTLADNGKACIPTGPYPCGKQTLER

Row | IC50 (FXa) [nM] | IC50 [1] [nM] | half-life at 2 μM [2] [min] | residual ratio (%) of liver S9 fraction 30 min later [3] [%] | SMILES | paPTT2 (human plasma)
1 | 398 | > 100000 | < 1 | 80 | N=C(N)c1cccc(N2CCC[C@H]2COC(=O)c2ccc(C(=N)N3CCCC3)cc2)c1 [compound of Ex. 22, ((2S)-1-{3-[amino(imino)methyl]phenyl}pyrrolidin-2-yl)methyl 4-[imino(pyrrolidin-1-yl)methyl]benzoate 2 trifluoroacetate] | 6.03
2 | 105 | 347 | < 1 | 85 | CC(=N)N1CCC(Oc2ccc(OC(=O)[C@H]3CCCN3c3cccc(C(=N)N)c3)cc2)CC1 [compound of Ex. 11, 4-[(1-ethanimidoylpiperidin-4-yl)oxy]phenyl 1-{3-[amino(imino)methyl]phenyl}-D-prolinate 2 trifluoroacetate] | 6.25

Source: patent publication US20130023563A1, “AMIDINOANILINE DERIVATIVE” (AJINOMOTO CO., INC., priority 2010, published 2013)
